Measured values from patent publication US7018989B2, “Chemical compounds” (University College Cardiff Consultants, LTD, priority 1995, dated 2006).
Read-outs that look alike come from different tables or passages of the source.

Key:
[1] = system: HIV-1; assay: microbe, parasite or virus in culture; settings: read-out: HIV1 CEM: EC50 for inhibition of HIV-1 in CEM cells
Experimental: (§1) Cells were infected with HIV-1 as previously described [Balzarini et al. AIDS (1991), 5, 21–28]. Briefly, 5×10^5 cells per milliliter were infected with HIV-1 or HIV-2 at 100 CCID50 (50% cell culture infective dose) per milliliter of cell suspension. Then 100 μL of the infected cell suspension was transferred to microtiter plate wells and mixed with 100 μL of the appropriate dilutions of the test compounds. After 4 days giant cell formation was recorded microscopically in the HIV-infected cell cultures [CEM], and after 5 days the number of viable cells was determined by trypan blue staining of the HIV-infected cell cultures [MT4].
(§2) The data columns are, in order: • HIV1 MT4: EC50 in μM for inhibition of HIV-1 in MT4 cells. • HIV2 MT4: EC50 in μM for inhibition of HIV-2 in MT4 cells. • CC50 MT4: CC50 in μM for toxicity to MT-4 cells. • HIV1 CEM: EC50 in μM for inhibition of HIV-1 in CEM cells. • HIV2 CEM: EC50 in μM for inhibition of HIV-2 in CEM cells. • HIV2 CEM-TK-: EC50 in μM for inhibition of HIV-2 in CEM/TK^− cells. • CC50 CEM: CC50 in μM for toxicity to CEM cells. • EC50 MSV: EC50 in μM for inhibition of MSV • MCC MSV: Minimum cytotoxic concentration in MSV assay

[2] = system: HIV-2; assay: Inhibition of HIV-2 in CEM cells (giant cell formation); assay type: cell-based; settings: read-out: HIV2 CEM: EC50 for inhibition of HIV-2 in CEM cells
Experimental: as §1, §2

[3] = system: HIV-2; assay: Inhibition of HIV-2 in CEM/TK- cells; assay type: cell-based
Experimental: as §1, §2

[4] = system: CEM cells; assay: Toxicity to CEM cells; assay type: cell-based, human
Experimental: as §1, §2

[5] = Table 6, mean of two or more repeat experiments
[6] = Table 6, mean of two or more repeat experiments, read-out: HIV2 CEM-TK-: EC50 for inhibition of HIV-2 in CEM/TK^− cells
[7] = CEM/TK- cells, HIV-2, read-out: HIV2 CEM-TK-: EC50 for inhibition of HIV-2 in CEM/TK- cells

| SMILES | EC50 [1, 5] [µM] | EC50 [2, 5] [µM] | EC50 [3, 6] [µM] | CC50 [4, 5] [µM] | EC50 ([1]; CEM cells, HIV-1) [µM] | EC50 ([2]; CEM cells, HIV-2) [µM] | EC50 [3, 7] [µM] | CC50 ([4]; CEM cells) [µM] |
| --- | --- | --- | --- | --- | --- | --- | --- | --- |
| CCCCCCOP(=O)(OCCCCCC)OCC1C=CC(n2cc(C)c(=O)[nH]c2=O)O1 (stereo not drawn) [Compound 321] | > 42 | > 42 | > 42 | 36 | – | – | – | – |
| Cc1cn([C@H]2C=C[C@@H](COP(=O)(O)O)O2)c(=O)[nH]c1=O [Compound 775] | 0.8 | 0.95 | 33 | 174 | – | – | – | – |
| CCCCCCO[PH](=O)OCC1C=CC(n2cc(C)c(=O)[nH]c2=O)O1 (stereo not drawn) [Compound 786] | 0.6 | 0.5 | 30 | 150 | – | – | – | – |
| COCCOCCO[PH](=O)OCC1C=CC(n2cc(C)c(=O)[nH]c2=O)O1 (stereo not drawn) [Compound 787] | 0.65 | 0.95 | 45 | 144 | – | – | – | – |
| CCO[PH](=O)OCC1C=CC(n2cc(C)c(=O)[nH]c2=O)O1 (stereo not drawn) [Compound 788] | 0.65 | 0.6 | 30 | 115 | – | – | – | – |
| CCCCCCCCCCO[PH](=O)OCC1C=CC(n2cc(C)c(=O)[nH]c2=O)O1 (stereo not drawn) [Compound 789] | – | 0.65 | 40 | 64 | – | – | – | – |
| CCCCO[PH](=O)OCC1C=CC(n2cc(C)c(=O)[nH]c2=O)O1 (stereo not drawn) [Compound 790] | 0.65 | 0.9 | 30 | 177 | – | – | – | – |
| CCCCCCCCO[PH](=O)OCC1C=CC(n2cc(C)c(=O)[nH]c2=O)O1 (stereo not drawn) [Compound 791] | 0.4 | 0.6 | 23 | 90 | – | – | – | – |
| CO[PH](=O)OCC1C=CC(n2cc(C)c(=O)[nH]c2=O)O1 (stereo not drawn) [Compound 817] | 0.7 | 0.55 | 20 | 146 | – | – | – | – |
| CCCCCCCCCCCCNP(=O)(OCC1C=CC(n2cc(C)c(=O)[nH]c2=O)O1)Oc1ccccc1 (stereo not drawn) [Compound 828] | > 10 | > 10 | – | 14 | – | – | – | – |
| CCCCCCCCNP(=O)(OCC1C=CC(n2cc(C)c(=O)[nH]c2=O)O1)Oc1ccccc1 (stereo not drawn) [Compound 829] | > 10 | ≥ 10 | – | 23 | – | – | – | – |
| CCCCNP(=O)(OCC1C=CC(n2cc(C)c(=O)[nH]c2=O)O1)Oc1ccccc1 (stereo not drawn) [Compound 840] | 140 | 100 | 125 | > 250 | – | – | – | – |
| CC(NP(=O)(OCC1C=CC(n2ccc(=O)[nH]c2=O)O1)Oc1ccccc1)C(=O)OCc1ccccc1 (stereo not drawn) [Compound 849] | 23 | 15 | 10 | 115 | – | – | – | – |
| Cc1cn(C2C=CC(COP(=O)(O)Oc3ccccc3)O2)c(=O)[nH]c1=O (stereo not drawn) [Compound 853] | 0.65 | 0.7 | 23 | 153 | – | – | – | – |
| CCCNP(=O)(OCC1C=CC(n2cc(C)c(=O)[nH]c2=O)O1)Oc1ccccc1 (stereo not drawn) [Compound 858] | > 250 | > 250 | > 250 | > 250 | – | – | – | – |
| CCCCCCNP(=O)(OCC1C=CC(n2cc(C)c(=O)[nH]c2=O)O1)Oc1ccccc1 (stereo not drawn) [Compound 859] | > 50 | > 50 | > 50 | 145 | – | – | – | – |
| Cc1cn(C2C=CC(COP(=O)(OCCC#N)Oc3ccccc3)O2)c(=O)[nH]c1=O (stereo not drawn) [Compound 861] | 1.2 | 0.95 | 17.5 | ≥ 250 | – | – | – | – |

| SMILES | EC50 [1, 5] [µM] | EC50 [2, 5] [µM] | EC50 [3, 6] [µM] | CC50 [4, 5] [µM] | EC50 ([1]; CEM cells, HIV-1) [µM] | EC50 ([2]; CEM cells, HIV-2) [µM] | EC50 [3, 7] [µM] | CC50 ([4]; CEM cells) [µM] |
| --- | --- | --- | --- | --- | --- | --- | --- | --- |
| COC(=O)C1CCCN1P(=O)(OCC1C=CC(n2cc(C)c(=O)[nH]c2=O)O1)Oc1ccccc1 (stereo not drawn) [Compound 879] | > 10 | > 10 | > 10 | 42.5 | – | – | – | – |
| Cc1cn(C2C=CC(COP(=O)(Oc3ccccc3)Oc3ccccc3)O2)c(=O)[nH]c1=O (stereo not drawn) [Compound 880] | – | 25 | 75 | ≥ 250 | – | – | – | – |
| Cc1cn([C@H]2C=C[C@@H](COP(=O)(O)NCC(=O)O)O2)c(=O)[nH]c1=O [Compound 1163, 2′,3′-dideoxy-2′,3′-didehydrothymidine 5′-(glycinyl phosphate)] | 2 | 5 | 130 | > 250 | – | – | – | – |
| [N-]=[N+]=NC1CC(n2ccc(=O)[nH]c2=O)OC1CO (stereo not drawn) [Cpd 569] | – | – | – | – | > 400 | > 400 | > 400 | – |
| COC(=O)C(C)NP(=O)(OCC1OC(n2ccc(=O)[nH]c2=O)CC1N=[N+]=[N-])Oc1ccccc1 (stereo not drawn) [Cpd 571] | – | – | – | – | > 202 | > 202 | 117 | – |
| CCCCCCNP(=O)(OCC1OC(n2cc(C)c(=O)[nH]c2=O)CC1N=[N+]=[N-])Oc1ccccc1 (stereo not drawn) [Cpd 657] | – | – | – | – | > 40 | > 40 | > 18 | – |
| CCCCNP(=O)(OCC1OC(n2cc(C)c(=O)[nH]c2=O)CC1N=[N+]=[N-])Oc1ccccc1 (stereo not drawn) [Cpd 659] | – | – | – | – | > 42 | > 42 | > 42 | – |
| CCCCCCCCCCCCNP(=O)(OCC1OC(n2cc(C)c(=O)[nH]c2=O)CC1N=[N+]=[N-])Oc1ccccc1 (stereo not drawn) [Cpd 661] | – | – | – | – | > 7 | > 7 | > 7 | – |
| COC(=O)C(C)NP(=O)(OC)OCC1OC(n2cc(C)c(=O)[nH]c2=O)CC1N=[N+]=[N-] (stereo not drawn) [Cpd 739] | – | – | – | – | 10 | 18 | > 250 | > 250 |
| CCCCCCCCn1c(=O)c(C)cn(C2CC(N=[N+]=[N-])C(COP(=O)(NC(C)C(=O)OC)Oc3ccccc3)O2)c1=O (stereo not drawn) [Cpd 774] | – | – | – | – | > 10 | > 10 | – | 15 |
| COC(=O)C(C)NP(=O)(OCC1OC(n2cc(C)c(=O)[nH]c2=O)CC1N=[N+]=[N-])Oc1ccc(Br)cc1Br (stereo not drawn) [Cpd 777] | – | – | – | – | 0.5 | 0.55 | 0.19 | 55 |
| COC(=O)C(C)NP(=O)(OCC1OC(n2cc(C)c(=O)[nH]c2=O)CC1N=[N+]=[N-])Oc1c(F)c(F)c(F)c(F)c1F (stereo not drawn) [Cpd 780] | – | – | – | – | 23 | 33 | 100 | 106 |
| Cc1cn(C2CC(N=[N+]=[N-])C(COP(=O)(OCCC#N)Oc3ccccc3)O2)c(=O)[nH]c1=O (stereo not drawn) [Cpd 846] | – | – | – | – | 13 | 14 | > 250 | > 250 |
| Cc1cn(C2CC(N=[N+]=[N-])C(COP(=O)(OCCC#N)OCC(F)(F)F)O2)c(=O)[nH]c1=O (stereo not drawn) [Cpd 847] | – | – | – | – | 12 | 9 | > 250 | > 250 |
| Cc1cn(C2CC(N=[N+]=[N-])C(COP(=O)(O)OCC(F)(F)F)O2)c(=O)[nH]c1=O (stereo not drawn) [Cpd 855] | – | – | – | – | 17.5 | 17.5 | > 250 | > 250 |
| CCCCCCOP(=O)(OCCC#N)OCC1OC(n2cc(C)c(=O)[nH]c2=O)CC1N=[N+]=[N-] (stereo not drawn) [Cpd 856] | – | – | – | – | 13 | 25 | > 250 | > 250 |
| CCCCCCOP(=O)(O)OCC1OC(n2cc(C)c(=O)[nH]c2=O)CC1N=[N+]=[N-] (stereo not drawn) [Cpd 857] | – | – | – | – | 5 | 10 | > 250 | > 250 |
